Usually MIC stands for the least concentration at which growth counts as inhibited. The IC90 is the concentration at which the effect reaches the 90% level. Low values mean an effect from little substance, high ones a need for much substance.

The text below walks through data of PMC8959600 (eLife, 2022).

In brackets after ≈: the same amount, converted by molar mass.

The test system of one experiment is Shigella flexneri 2457T. Put plainly: Resazurin growth inhibition, dose response (IC50/IC90) in Müller Hinton medium. In kind it is cell-based. On the procedure: We developed a high-throughput screening (HTS) method to identify compounds that could inhibit the growth of Shigella flexneri 2457T in Müller Hinton medium (Sigma Aldrich, UK). We adapted a resazurin reduction protocol from Franzblau et al. as surrogate readout for bacterial viability because it provided a stable signal, a low interference level, and was cost effective ([Franzblau et al., 1998]). Prior to the day of experimentation, one colony was used to inoculate 50 mL Mueller Hinton medium, and the culture was incubated overnight at 37 °C. The next day, 500 μL of the bacterial culture were inoculated into 50 mL fresh Mueller Hinton medium and bacterial growth was measured periodically at 600 nm. When the culture reached OD = 0.4–0.6, the inoculum was diluted to 1 × 10^6 CFU/mL; this bacterial suspension was added to compound pre-dispensed plates for screening.
The assay was performed in 1536-well polystyrene assay plates (HiBase, μClear, Greiner Bio‐One) and used to screen ~1.7 million compounds from (a) GSK naïve chemical diversity, (b) GSK antibacterial programs, and (c) marketed antimicrobial agents. All commercially available chemicals were purchased from either Sigma Aldrich, UK, AK Scientific, or Fischer Chemicals. The GSK compound screening set was sub-selected from the 8 million compound GSK collection using the principles described by Harper and co-workers ([Harper et al., 2004]). The process to generate the structural filters to remove compounds bearing undesirable/reactive chemotypes and/or non-developable physicochemical properties has been described previously by [Chakravorty et al., 2018]. […]. The set of marketed antibacterial agents included most commercial antimicrobial agents.
For screening, plates were prepared by dispensing 50 nl of compound from master plates at 1 mM in each well using a LabCyte Echo system. The final assay volume was 5 μl and the final compound concentration was 10 µM. The 11th and 12th columns were growth controls containing 50 nL of DMSO. The 34th and 35th columns contained 50 nL of Moxifloxacin at 20 μM as negative growth controls. Five µl of bacterial inoculum was dispensed into compound pre-dispensed plates using a Multidrop Combi dispenser (Thermo Scientific). Plates were agitated for 10 s to ensure mixing and incubated at 37 °C overnight (16–17 hr). Following overnight culture, 2 µl resazurin solution (Resazurin tablets for milk testing, BDH) was added to each well and incubated at room temperature in the dark for 3 hr. Fluorescence intensity was measured using an Envision plate reader (PerkinElmer). […] Data were analysed using Base software and statistical cut-off analysis was used for ‘hit’ selection following a standard GSK protocol. To calculate the statistical cut-off, percentage growth inhibition was calculated per well according to the plate controls, these values were aggregated to calculate the robust mean and standard deviation (SD) of the distribution. The robust mean was calculated starting from the median and the MAD of the distribution with an iterative process that aimed to remove outliers. Once the mean and SD were calculated, all compounds above mean + 3 SD were selected as primary hits.
After the initial screen, we generated fresh samples of the primary compound hits and tested them in duplicate against S. flexneri 2457T at 10 μM to confirm activity. The confirmed hit list was narrowed by applying the following filters: a 30% cut-off value, absence of undesirable structural features (e.g. electrophiles, peroxides, and Michael acceptors) and reduced physicochemical risk (maximum five aromatic rings and PFI <8)([Leeson and Young, 2015]). […].
(In general: The colour change of resazurin is a common sign of viable cells or microbes.)

For a further experiment, the system named is Salmonella (St14028). Put plainly: Checkerboard synergy assay (FIC), laboratory isolate. In kind it is cell-based, S. Typhimurium. Here is the method:
Before initiating drug combination assays, the MIC values for both compounds were determined against Shigella (Sf2457T), Salmonella (St14028), and E. coli (EcDH5a) isolates. […] 20 μM moxifloxacin was used as negative control (100% bacterial growth inhibition) in one column and DMSO as positive control (100% bacterial growth). A total of 25 µl of 1 × 10^6 CFU/mL bacterial culture was added to each well of a 384-well plate (μClear; Greiner Bio‐One). Plates were incubated overnight at 37 °C. Next, 10 µl of resazurin were added and plates were incubated at room temperature for 3 hr. Bacterial growth inhibition was measured by fluorescence in a Envision plate reader (PerkinElmer). All assays were performed in duplicate. Combination studies with clinical isolates were performed in 96-well plates (Greiner) adding 200 μl of 1 × 10^6 CFU/mL bacterial culture and following the same checkboard titration method as described above. The range of final working concentrations of each antimicrobial was adjusted based on the MIC of each selected organism.
MICs were determined for drug A and drug B alone and in combination. […] The sum of FIC was expressed using the following equation: FIC = (MIC of drug A in combination / MIC of drug A alone) + (MIC of drug B in combination / MIC of drug B alone) ([Le Minh et al., 2015]; [Petersen et al., 2006]; [Hall et al., 1983]; [European Committee for Antimicrobial Susceptibility Testing (EUCAST) of the European Society of Clinical Microbiology and Infectious Dieases (ESCMID), 2000]).

Where [1] appears, read: in combination with LpxC inhibitor PF-5081090.

On to `C[C@@H](O)[C@H]1C(=O)N2C(C(=O)O)=C(SC3CN(C4=NCCS4)C3)[C@H](C)[C@H]12` [Tebipenem], for which the MIC in the experiment with Shigella flexneri 2457T (2457T, read-out: estimated MIC of S. flexneri 2457T) was 0.39 µM. For the same compound, the IC90 in the experiment on Shigella flexneri 2457T (ATCC700930) stood at 0.01 µg/mL (≈ 0.0261 µM). Further, the “interaction (FIC index)” value in the experiment with Salmonella (St14028) (setting [1]) is recorded as “partial synergy”; in the experiment with Salmonella (St14028) (in combination with azithromycin), “partial synergy”; with Salmonella (St14028) (in combination with ceftriaxone), “indifference or partial synergy”; in the experiment with Salmonella (St14028) (in combination with ciprofloxacin) it was “indifference or partial synergy”; with Salmonella (St14028) (in combination with mecillinam) it was “indifference or partial synergy”. Besides, in the experiment on Salmonella (St14028) (setting [1]), the “reduction of the MIC against Tebipenem” value is reported as more than 10 fold.
